The supplement of paper PMC10307832

Experiments:
Test in all cases: relative viability (nuclei count vs DMSO), 5 days (fraction); higher = more cells survive
AZ23 = compound: CC(C)Oc1cc(Nc2nc(N[C@@H](C)c3ccc(F)cn3)ncc2Cl)n[nH]1 [AZ23]
Procedure, shortened: (§1)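 Viability here means nuclei in treated wells divided by nuclei in vehicle wells, reported as the median across plates. Only plates with control CV below 25% and at least one doubling passed. Lung cancer cell lines in 1536-well plates were exposed to five √10-spaced library-drug doses for 5 days and counted from 4× Hoechst images in MetaXpress.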

Embelin = compound: CCCCCCCCCCCC1=C(O)C(=O)C=C(O)C1=O [Embelin]
Procedure, shortened: as §1

[1] = compound: C[C@@H]1CN(CC(=O)Nc2ccc3c(c2)Cc2cccc(-c4cc(=O)cc(N5CCOCC5)o4)c2S3)C[C@H](C)O1
Procedure, shortened: as §1

Vatalanib = compound: Clc1ccc(Nc2nnc(Cc3ccncc3)c3ccccc23)cc1 [Vatalanib]
Procedure, shortened: as §1

HG-5-88-01 = compound: CC(C)S(=O)(=O)C1=CC=CC=C1NC2=NC(=NC(=C2Cl)N)NC3=C(C=C(C=C3)N4CCC(CC4)C(=O)N)OC [HG-5-88-01]
Procedure, shortened: as §1

| Cell Line | relative viability (AZ23; 0.01 µM) | relative viability (AZ23; 0.03162 µM) | relative viability (AZ23; 0.3162 µM) | relative viability (Embelin; 0.08 µM) | relative viability (Embelin; 0.8 µM) | relative viability (Embelin; 2.53 µM) | relative viability (Embelin; 8 µM) | relative viability ([1]; 0.04 µM) | relative viability ([1]; 0.1265 µM) | relative viability ([1]; 0.4 µM) | relative viability ([1]; 4 µM) | relative viability (Vatalanib; 0.04 µM) | relative viability (Vatalanib; 0.1265 µM) | relative viability (Vatalanib; 0.4 µM) | relative viability (Vatalanib; 1.265 µM) | relative viability (Vatalanib; 4 µM) | relative viability (HG-5-88-01; 0.04 µM) | relative viability (HG-5-88-01; 0.1265 µM) | relative viability (HG-5-88-01; 0.4 µM) | relative viability (HG-5-88-01; 4 µM) | relative viability (HG-5-88-01; 1.265 µM) |
| --- | --- | --- | --- | --- | --- | --- | --- | --- | --- | --- | --- | --- | --- | --- | --- | --- | --- | --- | --- | --- | --- |
| NCI-H1623 | 0.984 | 0.964 | 0.955 | 0.926 | 0.988 | 1.06 | 0.972 | 0.942 | 0.973 | 1.02 | 0.957 | 0.963 | 1.14 | 1.04 | 0.879 | 0.933 | 1.09 | 0.979 | 0.983 | 0.856 |  |
| NCI-H1648 | 0.794 | 1.05 | 0.788 | 0.963 | 1.21 | 0.92 | 0.954 | 0.871 | 0.796 | 1.06 | 0.757 | 0.958 | 0.938 | 0.893 | 0.889 | 0.939 | 0.809 | 0.728 | 0.878 | 0.451 | 0.368 |
| NCI-H1650 | 0.826 | 1.17 | 1.12 | 0.994 | 1.08 | 0.942 | 0.877 | 0.95 | 0.999 | 0.949 | 0.769 | 1.06 | 0.851 | 0.799 | 0.818 | 0.851 | 0.904 | 0.92 | 0.812 | 0.723 | 0.871 |
| NCI-H1651 | 0.947 | 1.05 | 1.05 | 0.992 | 1.03 | 1.03 | 0.946 | 0.954 | 0.954 | 1.03 | 0.981 | 1.01 | 0.935 | 0.955 | 0.92 | 0.958 | 0.994 | 0.993 | 0.986 | 1.07 | 0.976 |
| NCI-H1666 | 0.988 | 1.03 | 0.976 | 0.939 | 1.06 | 0.976 | 1.01 | 0.983 | 1.05 | 1.03 | 0.903 | 0.958 | 1.03 | 1.04 | 1 | 0.981 | 1.03 | 1.03 | 0.847 | 0.864 | 0.869 |
| NCI-H1703 |  | 0.879 | 0.943 | 0.99 | 1.79 | 0.899 | 0.838 | 1.26 | 0.763 | 0.797 | 0.668 | 1.12 | 0.754 | 1.14 | 0.527 | 0.363 | 0.778 | 0.983 | 0.663 | 0.954 | 0.941 |
| NCI-H1734 | 1.03 | 1.01 | 0.983 | 1.05 | 1.23 | 1.19 | 0.874 | 1.01 | 1.03 | 1.04 | 1.12 | 0.977 | 0.916 | 1.11 | 0.95 | 1.06 | 0.88 | 0.978 | 0.959 | 1.1 | 0.886 |
| NCI-H1755 | 1.09 | 1.05 | 1.06 | 0.986 | 1.03 | 1.02 | 0.892 | 1.01 | 0.986 | 1.03 | 1.01 | 1.03 | 0.959 | 0.966 | 0.944 | 0.99 | 1.02 | 1.03 | 0.99 | 1.01 | 1.02 |
| NCI-H1792 | 0.788 | 1.07 | 1.1 | 0.924 | 1.07 | 1.11 | 1.06 | 0.895 | 0.8 | 0.9 | 0.797 | 0.912 | 0.707 | 0.861 | 0.827 | 0.782 | 1.01 | 1.08 | 1 | 1.03 | 0.834 |
| NCI-H1793 | 1.1 | 1.07 | 1.07 | 0.918 | 1.08 | 1.06 | 0.431 | 1.01 | 0.866 | 1.05 | 0.581 | 0.902 | 0.879 | 1.07 | 0.839 | 0.774 |  | 0.942 | 0.985 | 0.792 | 0.668 |
| NCI-H1915 | 1.1 | 1.06 | 1.01 | 1.08 | 1.07 | 1.04 | 0.983 | 0.966 | 0.985 | 1.01 | 0.748 | 1.05 | 0.943 | 1.01 | 0.981 | 0.992 | 1.03 | 1.06 | 1.01 | 0.745 | 1.13 |
| NCI-H1944 | 0.971 | 1.13 | 1.05 | 1 | 1.07 | 1.06 | 0.961 |  | 0.958 | 1.03 | 0.952 | 0.987 | 0.848 | 1.1 | 1.01 | 0.907 | 0.988 | 1.01 | 0.913 | 0.902 | 0.972 |
| NCI-H1975 | 1.13 | 1.09 | 0.971 | 1.03 | 0.959 | 0.94 | 1.04 | 0.932 | 0.901 | 0.935 | 0.738 | 0.972 | 0.919 | 1.01 | 0.787 | 0.841 | 0.951 | 0.972 | 0.835 | 0.454 | 0.844 |
| NCI-H1993 | 0.926 | 0.834 | 0.991 | 1.05 | 0.888 | 1.05 | 0.843 | 1.07 | 0.96 | 0.761 | 0.938 | 0.818 | 0.871 | 0.923 | 0.748 | 0.815 | 0.879 | 0.998 | 0.9 | 0.861 | 0.611 |
| NCI-H2009 | 1.01 | 1.1 | 1.09 | 1.01 | 1.19 | 0.959 | 1 | 1.05 | 1.01 | 0.935 | 0.766 | 1.15 | 0.928 | 1.1 | 0.952 | 0.98 | 1.05 | 1.07 | 0.931 | 0.947 | 0.951 |
| NCI-H2023 |  | 1.11 | 1.13 | 1 | 0.926 | 1.07 | 0.736 | 1.04 | 0.937 | 0.773 | 0.681 | 1.02 | 0.88 | 1.12 | 0.893 | 0.933 | 1.04 | 0.958 | 0.795 | 0.633 | 0.725 |
